# Measurements taken from ChEMBL document CHEMBL4340576, “Synthesis of oxadiazole-coupled-thiadiazole derivatives as a potent β-glucuronidase inhibitors and their molecular docking study” (Bioorg Med Chem, 2019).
# Molecular target: T1, Beta-glucuronidase (Homo sapiens, UniProt P08236)
# T1 sequence (P08236 whole entry): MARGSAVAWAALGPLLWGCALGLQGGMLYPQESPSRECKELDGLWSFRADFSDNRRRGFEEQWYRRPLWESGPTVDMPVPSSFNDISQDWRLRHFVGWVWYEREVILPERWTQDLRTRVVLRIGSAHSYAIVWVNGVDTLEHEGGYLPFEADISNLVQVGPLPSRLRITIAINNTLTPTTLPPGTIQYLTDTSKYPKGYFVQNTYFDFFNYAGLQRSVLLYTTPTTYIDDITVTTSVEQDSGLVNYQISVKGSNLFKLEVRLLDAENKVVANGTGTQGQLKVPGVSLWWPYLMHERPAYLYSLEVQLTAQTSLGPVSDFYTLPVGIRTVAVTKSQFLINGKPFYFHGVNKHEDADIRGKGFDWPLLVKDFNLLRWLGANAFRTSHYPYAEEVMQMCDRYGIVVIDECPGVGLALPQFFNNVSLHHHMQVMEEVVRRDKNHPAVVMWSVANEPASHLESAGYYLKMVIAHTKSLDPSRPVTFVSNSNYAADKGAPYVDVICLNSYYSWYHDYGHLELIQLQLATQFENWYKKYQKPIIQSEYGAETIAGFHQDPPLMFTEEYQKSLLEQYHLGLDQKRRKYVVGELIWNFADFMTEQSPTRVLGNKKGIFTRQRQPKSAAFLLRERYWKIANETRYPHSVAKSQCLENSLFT
# Description: Inhibition of human beta-glucuronidase pre-incubated for 30 mins before p-nitrophenyl-beta-D-glucuronide substrate addition by spectrophotometry
row,SMILES,IC50
1,COc1cc(O)ccc1-c1nnc(-c2ccc(-c3nnc(-c4ccncc4)s3)cc2)o1,Not Active
2,COc1cc(O)ccc1-c1nnc(-c2ccc(-c3nnc(-c4cccnc4)s3)cc2)o1,Not Active
3,COc1cc(O)ccc1-c1nnc(-c2ccc(-c3nnc(-c4cccc(C)c4)s3)cc2)o1,Not Active
4,COc1cc(O)ccc1-c1nnc(-c2ccc(-c3nnc(-c4cccc([N+](=O)[O-])c4)s3)cc2)o1,Not Active
